One may read the IC50 as the point on the concentration scale where inhibition reaches its midpoint. The low end stands for greater potency in that assay, the high end for weaker potency in that assay.

Assay [1] relates to H9c2. The assay is described as follows: protection of cardiomyocytes from stress damage, SAR follow-up, cell-based, panel, H9c2 and HL-1, H2O2, 2-deoxyglucose, ATP luminescence (AID 651642).
Assay [2] deals with HL-1. The assay is described as above.
[3] abbreviates: H9c2/HL-1 cardiomyocyte 2-deoxyglucose damage, mean of runs, with 2-deoxyglucose, mean IC50 across panel.
Setting [4] is: H9c2/HL-1 cardiomyocyte 2-deoxyglucose damage, run 1, with 2-deoxyglucose.
Where [5] appears, read: H9c2/HL-1 cardiomyocyte 2-deoxyglucose damage, run 2, with 2-deoxyglucose.
Where [6] appears, read: H9c2/HL-1 cardiomyocyte 2-deoxyglucose damage, run 3, with 2-deoxyglucose.
Setting [7] is: H9c2/HL-1 cardiomyocyte 2-deoxyglucose damage, run 4, with 2-deoxyglucose.
Setting [8] is: H9c2/HL-1 cardiomyocyte H2O2 oxidative damage, run 1, with H2O2.
Setting [9] is: H9c2/HL-1 cardiomyocyte H2O2 oxidative damage, run 2, with H2O2.
Where [10] appears, read: H9c2/HL-1 cardiomyocyte H2O2 oxidative damage, run 3, with H2O2.
The mark [11] stands for this setting: H9c2/HL-1 cardiomyocyte H2O2 oxidative damage, run 4, with H2O2.
Setting [12] is: H9c2/HL-1 cardiomyocyte H2O2 oxidative damage, mean of runs, with H2O2, mean IC50 across panel.

Molecules are shown by their SMILES.

In the case of `COC(=O)CNC(=O)c1cccc(NC(=O)c2cc(-c3cc(OC)c(OC)c(OC)c3)nc3ccccc23)c1`, the IC50 in assay [1] (setting [3]) was 7.56 µM; in assay [1] (setting [4]), 8.88 µM; in assay [1] (setting [5]) it was 9.26 µM; in assay [1] (setting [6]), 5.76 µM; in assay [1] (setting [7]) it was 6.35 µM; in assay [1] (setting [8]) it was greater than 79 µM. For the same compound, the IC50 in assay [1] (setting [9]) is 1.7 µM; in assay [1] (setting [10]) it was greater than 79 µM; in assay [1] (setting [11]) it was greater than 79 µM; in assay [2] (setting [3]) it was 1.96 µM; in assay [2] (setting [4]), 1.26 µM; in assay [2] (setting [5]), 1.4 µM. Further, the IC50 in assay [2] (setting [6]) was determined as 2.32 µM; in assay [2] (setting [7]), 2.86 µM; in assay [2] (setting [12]), 4.24 µM; in assay [2] (setting [8]) it was 2.55 µM; in assay [2] (setting [9]) it was 3.43 µM; in assay [2] (setting [10]) it was 4.67 µM. For the same compound, in assay [2] (setting [11]), the IC50 came out at 6.3 µM.
For `COc1cc(-c2cc(C(=O)Nc3cccc(C#N)c3)c3ccccc3n2)cc(OC)c1OC`, the IC50 is greater than 79 µM in assay [1] (setting [3]); greater than 79 µM in assay [1] (setting [4]); greater than 79 µM in assay [1] (setting [5]); greater than 79 µM in assay [1] (setting [6]); greater than 79 µM in assay [1] (setting [7]); 7.93 µM in assay [1] (setting [8]). Moreover, the IC50 in assay [1] (setting [9]) is 8.58 µM; in assay [1] (setting [10]) it was greater than 79 µM; in assay [1] (setting [11]) it was 6.2 µM; in assay [2] (setting [4]) it was 5.37 µM; in assay [2] (setting [5]) it was 7.28 µM; in assay [2] (setting [6]) it was greater than 79 µM. In addition, the IC50 in assay [2] (setting [7]) was greater than 79 µM; in assay [2] (setting [8]), greater than 79 µM; in assay [2] (setting [9]), greater than 79 µM; in assay [2] (setting [10]) it was 6.09 µM; in assay [2] (setting [11]), 11.1 µM.
For the compound `COc1cc(-c2cc(C(=O)NCC(=O)O)c3ccccc3n2)cc(OC)c1OC`, the IC50 in assay [1] (setting [3]), in assay [1] (setting [4]), in assay [1] (setting [5]), in assay [1] (setting [6]), in assay [1] (setting [7]) and in assay [1] (setting [8]) was greater than 79 µM each time. The IC50 in assay [1] (setting [9]), in assay [1] (setting [10]), in assay [1] (setting [11]), in assay [2] (setting [3]), in assay [2] (setting [4]) and in assay [2] (setting [5]) was greater than 79 µM each time. Also, the IC50 in assay [2] (setting [6]), in assay [2] (setting [7]), in assay [2] (setting [12]), in assay [2] (setting [8]), in assay [2] (setting [9]) and in assay [2] (setting [10]) was greater than 79 µM in each case. The same compound registered an IC50 in assay [2] (setting [11]) greater than 79 µM.
For `COc1ccc2c(c1OC)C(=O)N1c3ccccc3C(=O)N(Cc3ccc(C)cc3C)C21` (configuration not stated), the IC50 in assay [1] (setting [3]), in assay [1] (setting [4]), in assay [1] (setting [5]), in assay [1] (setting [6]), in assay [1] (setting [7]) and in assay [1] (setting [12]) was greater than 79 µM in each case. For the same compound, the IC50 in assay [1] (setting [8]), in assay [1] (setting [9]), in assay [1] (setting [10]), in assay [1] (setting [11]), in assay [2] (setting [3]) and in assay [2] (setting [4]) was greater than 79 µM in each case. Besides, the IC50 in assay [2] (setting [5]), in assay [2] (setting [6]), in assay [2] (setting [7]), in assay [2] (setting [8]), in assay [2] (setting [9]) and in assay [2] (setting [10]) was greater than 79 µM in each case. The compound also came in with an IC50 in assay [2] (setting [11]) greater than 79 µM.
Take `CCOC(=O)c1cccc(NC(=O)CNC(=O)c2cc(-c3cc(OC)c(OC)c(OC)c3)nc3ccc(F)cc23)c1`: the half-inhibitory concentration (IC50) in assay [1] (setting [3]) turned out to be 3.79 µM; in assay [1] (setting [4]), 4.83 µM; in assay [1] (setting [5]) it was 5.33 µM; in assay [1] (setting [6]), 1.98 µM; in assay [1] (setting [7]), 3.04 µM; in assay [1] (setting [12]), 0.688 µM. Besides, the IC50 in assay [1] (setting [8]) stood at 0.838 µM; in assay [1] (setting [9]), 0.849 µM; in assay [1] (setting [10]), 0.526 µM; in assay [1] (setting [11]), 0.541 µM; in assay [2] (setting [3]), 2.58 µM; in assay [2] (setting [4]), 1.56 µM. In addition, the IC50 turned out to be 1.76 µM in assay [2] (setting [5]); 3.27 µM in assay [2] (setting [6]); 3.74 µM in assay [2] (setting [7]); 2.38 µM in assay [2] (setting [12]); 1.7 µM in assay [2] (setting [8]); 3.23 µM in assay [2] (setting [9]). Moreover, the IC50 in assay [2] (setting [10]) is 1.98 µM; in assay [2] (setting [11]) it was 2.6 µM.
`COc1cc(-c2cc(C(=O)Nc3cccc(C(=O)NC4CC4)c3)c3ccccc3n2)cc(OC)c1OC`: the IC50 in assay [1] (setting [3]) was found to be 19.6 µM; in assay [1] (setting [4]), 19.4 µM; in assay [1] (setting [5]), 21 µM; in assay [1] (setting [6]), 18.4 µM; in assay [1] (setting [7]), 19.8 µM; in assay [1] (setting [12]), 2.51 µM. In addition, the IC50 in assay [1] (setting [8]) was determined as 2 µM; in assay [1] (setting [9]) it was 2.73 µM; in assay [1] (setting [10]) it was 2.22 µM; in assay [1] (setting [11]), 3.11 µM; in assay [2] (setting [3]), 6.39 µM; in assay [2] (setting [4]), 3.71 µM. For the same compound, the IC50 in assay [2] (setting [5]) was found to be 4.41 µM; in assay [2] (setting [6]), 7.05 µM; in assay [2] (setting [7]) it was 10.4 µM; in assay [2] (setting [12]), 6.68 µM; in assay [2] (setting [8]), 4.24 µM; in assay [2] (setting [9]), 4.83 µM. The half-maximal inhibitory concentration (IC50) in assay [2] (setting [10]) is 7.07 µM; in assay [2] (setting [11]), 10.6 µM.
For `CCOC(=O)c1cccc(NC(=O)c2cc(-c3cc(OC)c(OC)c(OC)c3)nc3ccc(C)cc23)c1`, the IC50 in assay [1] (setting [3]) is greater than 79 µM; in assay [1] (setting [4]) it was greater than 79 µM; in assay [1] (setting [5]) it was greater than 79 µM; in assay [1] (setting [6]), greater than 79 µM; in assay [1] (setting [7]), greater than 79 µM; in assay [1] (setting [12]), 2.96 µM. The IC50 in assay [1] (setting [8]) is 2.98 µM; in assay [1] (setting [9]), 3.24 µM; in assay [1] (setting [10]), 2.59 µM; in assay [1] (setting [11]) it was 3.01 µM; in assay [2] (setting [4]), 2.03 µM; in assay [2] (setting [5]), 2.12 µM. In addition, the IC50 was greater than 79 µM in assay [2] (setting [6]); greater than 79 µM in assay [2] (setting [7]); greater than 79 µM in assay [2] (setting [8]); 2.63 µM in assay [2] (setting [9]); 1.79 µM in assay [2] (setting [10]); 2.94 µM in assay [2] (setting [11]).
With `COc1cc(-c2cc(C(=O)Nc3cccc(-c4nn[nH]n4)c3)c3ccccc3n2)cc(OC)c1OC`, the IC50 is greater than 79 µM in assay [1] (setting [3]); greater than 79 µM in assay [1] (setting [4]); greater than 79 µM in assay [1] (setting [5]); greater than 79 µM in assay [1] (setting [6]); greater than 79 µM in assay [1] (setting [7]); 20.9 µM in assay [1] (setting [12]). The IC50 in assay [1] (setting [8]) was 24.2 µM; in assay [1] (setting [9]), 24.3 µM; in assay [1] (setting [10]), 16.4 µM; in assay [1] (setting [11]) it was 18.6 µM; in assay [2] (setting [3]), 47.5 µM; in assay [2] (setting [4]), 27.6 µM. In addition, the IC50 in assay [2] (setting [5]) is 57.3 µM; in assay [2] (setting [6]), 48.6 µM; in assay [2] (setting [7]), 56.7 µM; in assay [2] (setting [12]) it was 25 µM; in assay [2] (setting [8]) it was 26.1 µM; in assay [2] (setting [9]) it was 28.8 µM. Also, the IC50 in assay [2] (setting [10]) came to 15.2 µM; in assay [2] (setting [11]), 29.8 µM.

The record behind these values is PubChem BioAssay AID651642 (Sanford-Burnham Center for Chemical Genomics, 2012).
